Experimental data as given in US12545673B2, “Imidazopyridine derivative and pharmaceutical composition comprising same as active ingredient” (TSD LIFE SCIENCES CO., LTD., priority 2019, dated 2026).
pIC50: −log10 of the molar value. Like-named read-outs stand apart in the source and are kept apart here.

How the values were obtained:
TGF-β1 = assay: Fibrosis inhibition evaluation 2, palmitic acid-induced HepG2, real-time PCR, TGF-β1
LRRK2 wild-type = LRRK2 wild-type (Homo sapiens (Human), UniProt Q5S007); assay: Evaluation of inhibitory activity against LRRK2 (affinity bead competition binding), wild-type; settings: read-out: Residual active values (%) LRRK2
Description: (§1) In order to identify the activity inhibitory effect on the LRRK2 wild-type and LRRK2 mutant (G2019S) kinase of the example compound according to the present disclosure, BL21-derived E. coli bacteria (E. coli) were cultured in a 24-well plate until the growth phase (log phase). After culturing, T7 phage tagged with LRRK2 wild-type or LRRK2 mutant (G2019S) was used to infect the multiplicity of infection (MOI) at 0.4. Thereafter, the E. coli bacteria were stirred at 32° C. for 90 to 150 minutes to allow dissolution. The lysate of E. coli bacteria was centrifuged (6,000×g) and filtered (0.2 μm), and the obtained tagged T7 phage […] a DNA-tagged kinase protein (LRRK2 or LRRK2 G2019S) was obtained.
(§2) After blocking the biotinylated ligand with extra biotin, it is washed with Pierce's buffer, SeaBlock (1% BSA, 0.05% Tween 20, 1 mM DTT) to remove unbound ligand and reduce non-specific binding.
(§3) The compound was prepared at a concentration of 40× in 100% DMSO and used after dilution, and all binding reactions were performed in a final volume of 0.02 ml in a 384-well plate.
(§4) The activity inhibitory effect on the LRRK2 wild-type and LRRK2 mutant (G2019S) kinases of the example compounds according to the present disclosure was measured and shown in Table 10 below.

LRRK2 mutant (G2019S) = LRRK2 mutant (G2019S) (Homo sapiens (Human), UniProt Q5S007, G2019S); assay: Evaluation of inhibitory activity against LRRK2 (affinity bead competition binding), G2019S mutant; settings: read-out: Residual active values (%) LRRK2(G2019S)
Description: as §1, §2, §3, §4

Fibronectin-1 = assay: Fibrosis inhibition evaluation 2, palmitic acid-induced HepG2, real-time PCR, Fibronectin-1
[1] = test system: human breast cancer cell line MDA-MB-231; assay: Cancer cell proliferation inhibitory activity evaluation 1 (CCK-8), MDA-MB-231; type: cell-based; settings: MDA-MB-231, 10 μM, 72 hours, CCK-8, read-out: Cancer cell proliferation inhibitory activity MDAMB231
Description: (§5) In order to identify whether the compound has anticancer activity, the human breast cancer cell line MDA-MB-231, the colorectal cancer cell line HT-29, the acute myeloid leukemia cell line U937, and the chronic myeloid leukemia cell line K562 were used. The cell line was cultured using RPMI-1640 medium containing 10% fetal bovine serum. Welgene products were used as the medium, and hyclone products were used for fetal bovine serum, and 1% of antibiotics for cell culture from Gibco were used as the culture medium.

[2] = test system: human lung cancer cell line A549; assay: Cancer cell proliferation inhibitory activity evaluation 2 (CCK-8), A549; type: cell-based; settings: A549, 10 μM, 72 hours, CCK-8, read-out: Cancer cell proliferation inhibitory activity A549
[3] = test system: acute myeloid leukemia cell line U937; assay: Cancer cell proliferation inhibitory activity evaluation 1 (CCK-8), U937; type: cell-based; settings: Homo sapiens, U-937; 10 μM, 72 hours, CCK-8 (Table 2); read-out: Cancer cell proliferation inhibitory activity U937
Description: as §5

[4] = test system: gastric cancer cell line Hs746T; assay: Cancer cell proliferation inhibitory activity evaluation 2 (CCK-8), Hs746T; type: cell-based; settings: Homo sapiens, 10 μM, 72 hours, CCK-8, read-out: Cancer cell proliferation inhibitory activity Hs746T
[5] = test system: acute myeloid leukemia cell line U937; assay: Cancer cell proliferation inhibitory activity evaluation 2 (CCK-8), U937; type: cell-based; settings: Homo sapiens, read-out: Cancer cell proliferation inhibitory activity U937
[6] = test system: acute lymphoblastic leukemia cell line Jurkat; assay: Cancer cell proliferation inhibitory activity evaluation 2 (CCK-8), Jurkat; type: cell-based; settings: Homo sapiens
[7] = test system: colorectal cancer cell line HT-29; assay: Cancer cell proliferation inhibitory activity evaluation 1 (CCK-8), HT-29; type: cell-based; settings: Homo sapiens, HT-29; 10 μM, 72 hours, CCK-8; read-out: Cancer cell proliferation inhibitory activity HT29
Description: as §5

[8] = test system: chronic myeloid leukemia cell line K562; assay: Cancer cell proliferation inhibitory activity evaluation 1 (CCK-8), K562; type: cell-based; settings: Homo sapiens, K562; 10 μM, 72 hours, CCK-8; read-out: Cancer cell proliferation inhibitory activity K562
Description: as §5

MLK3 = MLK3 (Homo sapiens (Human), UniProt Q16584); assay: Evaluation of inhibitory activity of enzyme units, MLK3 ([γ-33P]-ATP filter assay); settings: for IC50: read-out: IC50(nM) MLK3
MLK2 = MLK2 (Homo sapiens (Human), UniProt Q02779); assay: Evaluation of inhibitory activity of enzyme units, MLK2 ([γ-33P]-ATP filter assay); type: biochemical
[9] = test system: gastric cancer cell line AGS; assay: Cancer cell proliferation inhibitory activity evaluation 2 (CCK-8), AGS; type: cell-based; settings: Homo sapiens, read-out: Cancer cell proliferation inhibitory activity AGS
MLK1 = MLK1 (Homo sapiens (Human), UniProt P80192); assay: Evaluation of inhibitory activity of enzyme units, MLK1 ([γ-33P]-ATP filter assay); type: biochemical
[10] = U-937, 10 μM, 72 hours, CCK-8 (Table 3)
[11] = 10 μM, 72 hours, CCK-8, read-out: Cancer cell proliferation inhibitory activity Jurkat

Sequence of MLK2 (Q02779 whole entry, looked up): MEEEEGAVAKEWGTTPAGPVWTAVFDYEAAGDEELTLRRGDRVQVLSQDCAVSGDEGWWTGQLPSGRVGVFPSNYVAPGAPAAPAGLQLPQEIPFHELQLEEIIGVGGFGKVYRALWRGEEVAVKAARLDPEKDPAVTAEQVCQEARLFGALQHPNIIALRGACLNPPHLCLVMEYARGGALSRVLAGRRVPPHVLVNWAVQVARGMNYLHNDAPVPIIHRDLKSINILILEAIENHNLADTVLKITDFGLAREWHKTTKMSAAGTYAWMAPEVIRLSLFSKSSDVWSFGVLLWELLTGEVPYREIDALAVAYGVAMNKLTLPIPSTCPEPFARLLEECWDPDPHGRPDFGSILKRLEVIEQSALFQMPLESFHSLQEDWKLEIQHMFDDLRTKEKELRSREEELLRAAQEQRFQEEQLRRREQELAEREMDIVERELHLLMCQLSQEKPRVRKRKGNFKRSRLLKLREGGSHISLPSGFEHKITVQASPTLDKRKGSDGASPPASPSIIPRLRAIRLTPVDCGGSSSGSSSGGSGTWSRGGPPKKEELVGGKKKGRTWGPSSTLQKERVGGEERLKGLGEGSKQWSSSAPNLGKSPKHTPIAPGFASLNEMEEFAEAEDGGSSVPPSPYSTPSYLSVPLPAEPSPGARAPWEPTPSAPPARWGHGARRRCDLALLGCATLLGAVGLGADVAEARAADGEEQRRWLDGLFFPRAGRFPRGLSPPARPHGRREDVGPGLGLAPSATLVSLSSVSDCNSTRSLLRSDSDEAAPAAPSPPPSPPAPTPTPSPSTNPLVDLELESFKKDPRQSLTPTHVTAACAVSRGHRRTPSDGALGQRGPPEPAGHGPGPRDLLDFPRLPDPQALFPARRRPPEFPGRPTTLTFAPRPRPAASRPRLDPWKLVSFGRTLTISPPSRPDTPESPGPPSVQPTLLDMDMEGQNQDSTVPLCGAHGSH
Sequence of MLK3 (Q16584 whole entry, looked up): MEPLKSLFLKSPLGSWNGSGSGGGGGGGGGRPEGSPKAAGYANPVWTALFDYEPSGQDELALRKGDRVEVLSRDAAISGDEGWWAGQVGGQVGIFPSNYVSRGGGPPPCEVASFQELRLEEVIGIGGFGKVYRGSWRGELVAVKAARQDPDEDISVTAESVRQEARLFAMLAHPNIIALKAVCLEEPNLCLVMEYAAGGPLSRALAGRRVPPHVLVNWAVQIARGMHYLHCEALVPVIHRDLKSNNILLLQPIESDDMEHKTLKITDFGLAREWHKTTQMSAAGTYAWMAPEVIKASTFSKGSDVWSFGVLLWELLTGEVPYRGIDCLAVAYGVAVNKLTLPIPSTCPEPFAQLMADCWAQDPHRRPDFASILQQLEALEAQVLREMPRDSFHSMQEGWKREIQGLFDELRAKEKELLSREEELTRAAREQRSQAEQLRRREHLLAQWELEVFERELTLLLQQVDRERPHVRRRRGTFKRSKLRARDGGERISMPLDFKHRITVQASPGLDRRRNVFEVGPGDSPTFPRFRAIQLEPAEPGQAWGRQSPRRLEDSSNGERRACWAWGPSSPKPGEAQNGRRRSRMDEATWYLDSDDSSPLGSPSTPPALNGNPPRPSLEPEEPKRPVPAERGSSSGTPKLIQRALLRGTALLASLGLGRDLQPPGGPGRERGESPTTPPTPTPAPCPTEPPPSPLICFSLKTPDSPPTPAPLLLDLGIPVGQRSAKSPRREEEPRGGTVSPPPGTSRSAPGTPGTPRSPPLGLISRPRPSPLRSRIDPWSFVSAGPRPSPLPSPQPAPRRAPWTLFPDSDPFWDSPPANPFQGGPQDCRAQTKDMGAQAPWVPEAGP
Sequence of LRRK2 wild-type (Q5S007 whole entry, looked up): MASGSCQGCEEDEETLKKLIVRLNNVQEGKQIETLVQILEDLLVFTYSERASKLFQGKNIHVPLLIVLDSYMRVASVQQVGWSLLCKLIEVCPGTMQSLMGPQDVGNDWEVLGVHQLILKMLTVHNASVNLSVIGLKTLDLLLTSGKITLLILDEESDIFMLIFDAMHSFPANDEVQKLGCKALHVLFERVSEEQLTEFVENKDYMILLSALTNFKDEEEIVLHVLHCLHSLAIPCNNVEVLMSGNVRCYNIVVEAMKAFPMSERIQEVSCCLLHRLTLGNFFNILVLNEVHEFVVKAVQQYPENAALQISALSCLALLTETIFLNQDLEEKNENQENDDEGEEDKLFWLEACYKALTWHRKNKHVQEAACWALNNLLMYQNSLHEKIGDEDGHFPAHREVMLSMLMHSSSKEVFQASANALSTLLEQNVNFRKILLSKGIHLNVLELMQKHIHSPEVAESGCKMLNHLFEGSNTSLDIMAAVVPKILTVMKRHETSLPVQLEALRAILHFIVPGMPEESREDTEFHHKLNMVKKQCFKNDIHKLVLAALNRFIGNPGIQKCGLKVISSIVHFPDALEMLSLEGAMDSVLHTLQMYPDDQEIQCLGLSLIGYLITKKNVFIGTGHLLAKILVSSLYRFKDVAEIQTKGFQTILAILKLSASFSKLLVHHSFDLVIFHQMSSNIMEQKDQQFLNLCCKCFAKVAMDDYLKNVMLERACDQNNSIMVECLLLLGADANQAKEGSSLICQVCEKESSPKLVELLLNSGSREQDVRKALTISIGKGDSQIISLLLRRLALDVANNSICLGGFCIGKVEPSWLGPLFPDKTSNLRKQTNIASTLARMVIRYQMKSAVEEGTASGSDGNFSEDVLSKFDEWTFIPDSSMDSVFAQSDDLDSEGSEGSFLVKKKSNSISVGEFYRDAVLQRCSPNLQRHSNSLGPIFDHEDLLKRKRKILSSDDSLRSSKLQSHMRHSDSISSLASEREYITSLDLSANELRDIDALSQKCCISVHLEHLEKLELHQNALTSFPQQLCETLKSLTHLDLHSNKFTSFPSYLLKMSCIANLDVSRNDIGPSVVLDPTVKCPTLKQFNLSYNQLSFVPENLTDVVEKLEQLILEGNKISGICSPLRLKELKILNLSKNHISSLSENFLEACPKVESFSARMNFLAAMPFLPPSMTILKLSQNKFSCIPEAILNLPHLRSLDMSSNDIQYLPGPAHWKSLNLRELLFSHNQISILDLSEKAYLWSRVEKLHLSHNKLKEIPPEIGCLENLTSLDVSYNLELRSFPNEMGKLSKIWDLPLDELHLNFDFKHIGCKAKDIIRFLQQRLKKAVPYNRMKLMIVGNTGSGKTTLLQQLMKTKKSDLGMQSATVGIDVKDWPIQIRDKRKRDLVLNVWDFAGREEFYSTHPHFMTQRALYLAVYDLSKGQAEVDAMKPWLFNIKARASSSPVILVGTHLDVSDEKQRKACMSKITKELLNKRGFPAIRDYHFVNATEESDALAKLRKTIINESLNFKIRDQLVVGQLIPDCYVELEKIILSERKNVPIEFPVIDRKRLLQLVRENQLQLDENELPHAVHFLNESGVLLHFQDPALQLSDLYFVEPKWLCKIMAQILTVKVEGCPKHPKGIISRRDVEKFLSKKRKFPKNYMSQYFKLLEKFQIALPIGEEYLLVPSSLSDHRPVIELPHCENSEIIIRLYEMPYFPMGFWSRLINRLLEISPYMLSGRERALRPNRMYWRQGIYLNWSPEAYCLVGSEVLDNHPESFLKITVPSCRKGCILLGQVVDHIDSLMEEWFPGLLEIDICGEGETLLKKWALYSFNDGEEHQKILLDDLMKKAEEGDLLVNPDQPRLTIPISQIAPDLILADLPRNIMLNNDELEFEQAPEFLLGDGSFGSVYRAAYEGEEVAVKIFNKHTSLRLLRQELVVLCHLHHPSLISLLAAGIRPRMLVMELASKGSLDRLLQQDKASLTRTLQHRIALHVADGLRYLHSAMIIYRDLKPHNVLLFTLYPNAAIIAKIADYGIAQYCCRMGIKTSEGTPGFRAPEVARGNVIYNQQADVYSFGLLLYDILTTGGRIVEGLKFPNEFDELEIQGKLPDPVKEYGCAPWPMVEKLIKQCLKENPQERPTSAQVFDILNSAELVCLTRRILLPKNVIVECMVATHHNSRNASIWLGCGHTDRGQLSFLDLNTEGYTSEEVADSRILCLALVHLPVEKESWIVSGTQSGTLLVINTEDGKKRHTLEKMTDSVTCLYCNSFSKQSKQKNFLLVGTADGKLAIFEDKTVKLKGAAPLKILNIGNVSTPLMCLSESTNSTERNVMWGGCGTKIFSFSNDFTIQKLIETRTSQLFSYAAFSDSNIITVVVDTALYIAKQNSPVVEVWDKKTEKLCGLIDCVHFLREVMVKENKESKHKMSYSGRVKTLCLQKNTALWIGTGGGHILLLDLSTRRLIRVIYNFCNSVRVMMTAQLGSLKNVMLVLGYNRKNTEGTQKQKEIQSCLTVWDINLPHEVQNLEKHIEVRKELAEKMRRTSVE
Sequence of LRRK2 mutant (G2019S) (Q5S007 whole entry G2019S, looked up): as the sequence (Q5S007 whole entry, looked up) above, with G2019S counted along it

In the case of CCS(=O)(=O)N1CC[C@H](Nc2c(Br)cnc3nc(-c4cc(C)n(-c5cccc(OCCN6CCOCC6)c5)c4C)[nH]c23)C1 [Example 3, (S)-6-bromo-2-(2,5-dimethyl-1-(3-(2-morpholinoethoxy)phenyl)-1H-pyrrol-3-yl)-N-(1-(ethylsulfonyl)pyrrolidine-3-yl)-1H-imidazo[4,5-b]pyridine-7-amine], the “Relative degree of expression inhibition (%) TGF-β1” value (TGF-β1) was 109.05%, the remaining binding at 0.1 µM (LRRK2 wild-type; 100 nM) was 17% and the remaining binding at 0.5 µM (LRRK2 wild-type; 500 nM) was 3.1%. The remaining binding at 0.1 µM (LRRK2 mutant (G2019S); 100 nM) was 3.5%, the remaining binding at 0.5 µM (LRRK2 mutant (G2019S); 500 nM) was 0.9% and the “Relative degree of expression inhibition (%) Fibronectin-1” value (Fibronectin-1) was 72.85%. For the same molecule, the inhibition at 10 µM [1] was over 50%, the inhibition at 10 µM [2] was 10 to 50% and the inhibition at 10 µM [3] was over 50%. For the same molecule, the inhibition at 10 µM [4] was over 50%, the inhibition at 10 µM [5, 10] was 10 to 50% and the inhibition at 10 µM [6, 11] was over 50%. It also gave an inhibition at 10 µM [7] of 10 to 50% and an inhibition at 10 µM [8] of over 50%.
With CCS(=O)(=O)N1CC[C@H](Nc2c(Br)cnc3[nH]c(-c4cc(C)n(-c5ccc(C(=O)N6CCOCC6)cc5)c4C)nc23)C1 [Example 5, (S)-(4-(3-(6-bromo-7-((1-(ethylsulfonyl)pyrrolidine-3-yl)amino)-3H-imidazo[4,5-b]pyridine-2-yl)-2,5-dimethyl-1H-pyrrol-1-yl)phenyl) (morpholino) methanone] the IC50 (MLK3) was 6 nM and the IC50 (MLK2) was 92 nM.
With CCS(=O)(=O)N1CC[C@H](Nc2c(Br)cnc3[nH]c(-c4cc(C)n(-c5cccc(C(=O)N6CCOCC6)c5)c4C)nc23)C1 [Example 6, (S)-(3-(3-(6-bromo-7-((1-(ethylsulfonyl)pyrrolidine-3-yl)amino)-3H-imidazo[4,5-b]pyridine-2-yl)-2,5-dimethyl-1H-pyrrol-1-yl)phenyl) (morpholino) methanone] the IC50 (MLK3) was 6 nM and the IC50 (MLK2) was 181 nM.
With CCNS(=O)(=O)c1cccc(-n2c(C)cc(-c3nc4ncc(Br)c(N[C@H]5CCN(S(=O)(=O)CC)C5)c4[nH]3)c2C)c1 [Example 19, (S)-3-(3-(6-bromo-7-((1-(ethylsulfonyl)pyrrolidine-3-yl)amino)-1H-imidazo[4,5-b]pyridine-2-yl)-2,5-dimethyl-1H-pyrrol-1-yl)-N-ethylbenzenesulfonamide] the IC50 (MLK3) was 14 nM, the inhibition at 10 µM ([9]; 72 h) was over 50% and the IC50 (MLK2) was 90 nM. The inhibition at 10 µM ([5]; U-937, 72 h) was over 50%, the inhibition at 10 µM ([6]; 72 h, read-out: Cancer cell proliferation inhibitory activity Jurkat) was over 50% and the IC50 (MLK1) was 36 nM.
CCS(=O)(=O)N1CC[C@H](Nc2c(Br)cnc3nc(-c4cc(C)n(-c5ccc(OCCOC)cc5)c4C)[nH]c23)C1 [Example 22, (S)-6-bromo-N-(1-(ethylsulfonyl)pyrrolidine-3-yl)-2-(1-(4-(2-methoxyethoxy)phenyl)-2,5-dimethyl-1H-pyrrol-3-yl)-1H-imidazo[4,5-b]pyridine-7-amine] was tested, and the IC50 (MLK3) was 17 nM, the inhibition at 10 µM ([9]; 10 μM, 72 hours, CCK-8) was 10 to 50% and the IC50 (MLK2) was 186 nM. It also gave an IC50 (MLK1) of 38 nM.
Cc1cc(-c2nc3c(Nc4cccc(S(N)(=O)=O)c4)c(Br)cnc3[nH]2)c(C)n1-c1ccccc1Cl [Example 31, 3-((6-bromo-2-(1-(2-chlorophenyl)-2,5-dimethyl-1H-pyrrol-3-yl)-3H-imidazo[4,5-b]pyridine-7-yl)amino)benzenesulfonamide] gave an IC50 (MLK3) of 35 nM, an inhibition at 10 µM ([9]; 10 μM, 72 hours, CCK-8) of 10 to 50% and an inhibition at 10 µM [1] of under 10%. For the same molecule, the inhibition at 10 µM [3] was 10 to 50%, the inhibition at 10 µM [5, 10] was 10 to 50% and the inhibition at 10 µM [6, 11] was 10 to 50%. For the same molecule, the inhibition at 10 µM [7] was over 50% and the inhibition at 10 µM [8] was 10 to 50%.
Work on Cc1ccc(NS(C)(=O)=O)cc1-n1c(C)cc(-c2nc3c(Nc4cccc(S(N)(=O)=O)c4)c(Br)cnc3[nH]2)c1C [Example 33, 3-((6-bromo-2-(2,5-dimethyl-1-(2-methyl-5-(methylsulfonamido)phenyl)-1H-pyrrol-3-yl)-3H-imidazo[4,5-b]pyridine-7-yl)amino)benzenesulfonamide] yielded an IC50 (MLK3) of 38 nM, an inhibition at 10 µM ([9]; 10 μM, 72 hours, CCK-8) of 10 to 50% and an inhibition at 10 µM [1] of 10 to 50%. The inhibition at 10 µM [3] was 10 to 50%, the inhibition at 10 µM [5, 10] was under 10% and the inhibition at 10 µM [6, 11] was 10 to 50%. For the same molecule, the inhibition at 10 µM [7] was under 10% and the inhibition at 10 µM [8] was under 10%.
With Cc1cc(-c2nc3c(Nc4cccc(S(N)(=O)=O)c4)c(Br)cnc3[nH]2)c(C)n1-c1cc(Cl)ccc1Cl [Example 35, 3-((6-bromo-2-(1-(2,5-dichlorophenyl)-2,5-dimethyl-1H-pyrrol-3-yl)-3H-imidazo[4,5-b]pyridine-7-yl)amino)benzenesulfonamide] the pIC50 (MLK3) was 7.34, the inhibition at 10 µM ([9]; 10 μM, 72 hours, CCK-8) was 10 to 50% and the inhibition at 10 µM [1] was 10 to 50%. It also gave an inhibition at 10 µM [3] of 10 to 50%, an inhibition at 10 µM [5, 10] of 10 to 50% and an inhibition at 10 µM [6, 11] of 10 to 50%. The inhibition at 10 µM [7] was over 50% and the inhibition at 10 µM [8] was under 10%.
In the case of Cc1cc(-c2nc3c(Nc4cccc(S(N)(=O)=O)c4)c(Br)cnc3[nH]2)c(C)n1-c1cccc(N2CCOCC2)c1 [Example 37, 3-((6-bromo-2-(2,5-dimethyl-1-(3-morpholinophenyl)-1H-pyrrol-3-yl)-3H-imidazo[4,5-b]pyridine-7-yl)amino)benzenesulfonamide], the IC50 (MLK3) was 47 nM, the inhibition at 10 µM ([9]; 10 μM, 72 hours, CCK-8) was 10 to 50% and the inhibition at 10 µM [1] was over 50%. The inhibition at 10 µM [3] was 10 to 50%, the inhibition at 10 µM [5, 10] was 10 to 50% and the inhibition at 10 µM [6, 11] was 10 to 50%. The inhibition at 10 µM [7] was over 50% and the inhibition at 10 µM [8] was under 10%.
In the case of Cc1cc(-c2nc3ncc(Br)c(Nc4cccc(S(N)(=O)=O)c4)c3[nH]2)c(C)n1-c1cccc(OCCN2CCOCC2)c1 [Example 38, 3-((6-bromo-2-(2,5-dimethyl-1-(3-(2-morpholinoethoxy)phenyl)-1H-pyrrol-3-yl)-1H-imidazo[4,5-b]pyridine-7-yl)amino)benzenesulfonamide], the IC50 (MLK3) was 52 nM, the inhibition at 10 µM ([9]; 10 μM, 72 hours, CCK-8) was over 50% and the inhibition at 10 µM [1] was 10 to 50%. It also gave an inhibition at 10 µM [3] of over 50%, an inhibition at 10 µM [5, 10] of 10 to 50% and an inhibition at 10 µM [6, 11] of over 50%. The inhibition at 10 µM [7] was over 50% and the inhibition at 10 µM [8] was over 50%.
For Cc1cc(-c2nc3ncc(Br)c(Nc4cccc(S(N)(=O)=O)c4)c3[nH]2)c(C)n1-c1ccc(OCCN2CCOCC2)cc1 [Example 39, 3-((6-bromo-2-(2,5-dimethyl-1-(4-(2-morpholinoethoxy)phenyl)-1H-pyrrol-3-yl)-1H-imidazo[4,5-b]pyridine-7-yl)amino)benzenesulfonamide], the IC50 (MLK3) was 72 nM, the inhibition at 10 µM ([9]; 10 μM, 72 hours, CCK-8) was over 50% and the inhibition at 10 µM [1] was 10 to 50%. For the same molecule, the inhibition at 10 µM [3] was under 10%, the inhibition at 10 µM [5, 10] was 10 to 50% and the inhibition at 10 µM [6, 11] was over 50%. It also gave an inhibition at 10 µM [7] of 10 to 50% and an inhibition at 10 µM [8] of 10 to 50%.
Cc1cc(-c2nc3c(Nc4cccc(S(N)(=O)=O)c4)c(Br)cnc3[nH]2)c(C)n1-c1ccc(N2CCOCC2)cc1 [Example 40, 3-((6-bromo-2-(2,5-dimethyl-1-(4-morpholinophenyl)-1H-pyrrol-3-yl)-3H-imidazo[4,5-b]pyridine-7-yl)amino)benzenesulfonamide] gave an IC50 (MLK3) of 68 nM, an inhibition at 10 µM ([9]; 10 μM, 72 hours, CCK-8) of 10 to 50% and an inhibition at 10 µM [1] of 10 to 50%. It also gave an inhibition at 10 µM [3] of over 50%, an inhibition at 10 µM [5, 10] of 10 to 50% and an inhibition at 10 µM [6, 11] of over 50%. The inhibition at 10 µM [7] was over 50% and the inhibition at 10 µM [8] was 10 to 50%.
